In ChEMBL document CHEMBL4229439, “Design, synthesis and antimycobacterial activity of 3,5-dinitrobenzamide derivatives containing fused ring moieties” (2018):
In brackets after ≈: the same amount, converted by molar mass. Activity calls are given as the source filed them. No cut-off for these calls is given here.

What was measured:
[1] = test system: Mycobacterium tuberculosis; assay: Antimycobacterial activity against Mycobacterium tuberculosis H37Rv ATCC 27294 after 7 days by Alamar blue assay; assay type: functional; conditions: H37Rv ATCC 27294, 168 h
[2] = test system: Mycobacterium tuberculosis; assay: Antimycobacterial activity against Mycobacterium tuberculosis H37Rv ATCC 27294 up to 10 ug/ml after 7 days by Alamar blue assay; assay type: functional, organism-based

| SMILES | MIC [1] [µg/mL] | Activity [2] |
| --- | --- | --- |
| CCC(C)C(=O)N1CCc2cc(CNC(=O)c3cc([N+](=O)[O-])cc([N+](=O)[O-])c3)ccc2C1 (stereo not drawn) | 0.468 (≈ 1.06 µM) |  |
| O=C(NCc1ccc2c(c1)CCN(CC1CCCCC1)C2)c1cc([N+](=O)[O-])cc([N+](=O)[O-])c1 | 0.226 (≈ 0.499 µM) |  |
| O=C(CN1CCc2cc(CNC(=O)c3cc([N+](=O)[O-])cc([N+](=O)[O-])c3)ccc2C1)OCc1ccccc1 | 7.55 (≈ 15 µM) |  |
| COc1ccc(C(=O)N2CCc3cc(CNC(=O)c4cc([N+](=O)[O-])cc([N+](=O)[O-])c4)ccc3C2)cc1 | 1.15 (≈ 2.34 µM) |  |
| O=C(NCc1ccc2c(c1)CN(Cc1ccc(F)cc1)C2)c1cc([N+](=O)[O-])cc([N+](=O)[O-])c1 | 0.028 (≈ 0.0622 µM) |  |
| O=C(NCc1ccc2c(c1)CNC2)c1cc([N+](=O)[O-])cc([N+](=O)[O-])c1 | < 0.016 | inactive |
| O=C(NCc1ccc2c(c1)CN(c1ccc(C(F)(F)F)cc1)C2)c1cc([N+](=O)[O-])cc([N+](=O)[O-])c1 | 0.098 (≈ 0.201 µM) |  |
| O=C(NCc1ccc2c(c1)CCN(c1ccc(OC(F)(F)F)cc1)C2)c1cc([N+](=O)[O-])cc([N+](=O)[O-])c1 | 0.241 (≈ 0.467 µM) |  |
| CC(C)(C)C(=O)N1Cc2ccc(CNC(=O)c3cc([N+](=O)[O-])cc([N+](=O)[O-])c3)cc2C1 | 0.489 (≈ 1.15 µM) |  |
| O=C(NCc1ccc2c(c1)CCN(Cc1ccc(Cl)cc1)C2)c1cc([N+](=O)[O-])cc([N+](=O)[O-])c1 | 0.056 (≈ 0.116 µM) |  |
| O=C(NCc1ccc2c(c1)CCN(c1ccc(F)cc1)C2)c1cc([N+](=O)[O-])cc([N+](=O)[O-])c1 | 0.076 (≈ 0.169 µM) |  |
| CC(=O)CN1CCc2cc(CNC(=O)c3cc([N+](=O)[O-])cc([N+](=O)[O-])c3)ccc2C1 | 3.12 (≈ 7.56 µM) |  |
| O=C(NCc1ccc2c(c1)CCN(Cc1ccc(OC(F)(F)F)cc1)C2)c1cc([N+](=O)[O-])cc([N+](=O)[O-])c1 | 0.241 (≈ 0.454 µM) |  |
| CO[C@H]1/C=C/O[C@@]2(C)Oc3c(C)c(O)c4c(O)c(c(/C=N/N5CCN(C)CC5)c(O)c4c3C2=O)NC(=O)/C(C)=C\C=C\[C@H](C)[C@H](O)[C@@H](C)[C@@H](O)[C@@H](C)[C@H](OC(C)=O)[C@@H]1C [RIFAMPIN] | 0.095 (≈ 0.115 µM) |  |
| CCOC(=O)CN1CCc2cc(CNC(=O)c3cc([N+](=O)[O-])cc([N+](=O)[O-])c3)ccc2C1 | 0.243 (≈ 0.549 µM) |  |
| O=c1nc(N2CCN(CC3CCCCC3)CC2)sc2c([N+](=O)[O-])cc(C(F)(F)F)cc12 [MACOZINONE] | < 0.016 |  |
| CC(C)(C)C(=O)N1CCc2cc(CNC(=O)c3cc([N+](=O)[O-])cc([N+](=O)[O-])c3)ccc2C1 | 0.447 (≈ 1.01 µM) |  |
| O=C(NCc1ccc2c(c1)CCN(Cc1ccc(F)cc1)C2)c1cc([N+](=O)[O-])cc([N+](=O)[O-])c1 | 0.122 (≈ 0.263 µM) |  |
| O=C(NCc1ccc2c(c1)CCN(C(=O)C1CCCCC1)C2)c1cc([N+](=O)[O-])cc([N+](=O)[O-])c1 | 0.5 (≈ 1.07 µM) |  |
| CCN(CC)C(=O)CN1CCc2cc(CNC(=O)c3cc([N+](=O)[O-])cc([N+](=O)[O-])c3)ccc2C1 | 15.3 (≈ 32.7 µM) |  |
| O=C(NCc1ccc2c(c1)CCN(c1ccc(C(F)(F)F)cc1)C2)c1cc([N+](=O)[O-])cc([N+](=O)[O-])c1 | 0.079 (≈ 0.158 µM) |  |

| SMILES | MIC [1] [µg/mL] | Activity [2] |
| --- | --- | --- |
| O=C(CN1CCc2cc(CNC(=O)c3cc([N+](=O)[O-])cc([N+](=O)[O-])c3)ccc2C1)NCc1ccccc1 | 3.96 (≈ 7.86 µM) |  |
| O=C(NCc1ccc2c(c1)CN(C(=O)C1CCCCC1)C2)c1cc([N+](=O)[O-])cc([N+](=O)[O-])c1 | 0.808 (≈ 1.79 µM) |  |
| O=C(NCc1ccc2c(c1)CN(Cc1ccc(OC(F)(F)F)cc1)C2)c1cc([N+](=O)[O-])cc([N+](=O)[O-])c1 | 0.016 (≈ 0.031 µM) |  |
| O=C(NCc1ccc2c(c1)CCN(Cc1cc(C(F)(F)F)cc(C(F)(F)F)c1)C2)c1cc([N+](=O)[O-])cc([N+](=O)[O-])c1 | 1.9 (≈ 3.26 µM) |  |
| O=C(NCc1ccc2c(c1)CCN(C(=O)c1ccccc1)C2)c1cc([N+](=O)[O-])cc([N+](=O)[O-])c1 | 0.974 (≈ 2.12 µM) |  |
| O=C(NCc1ccc2c(c1)CN(C(=O)c1ccc(F)cc1)C2)c1cc([N+](=O)[O-])cc([N+](=O)[O-])c1 | 0.926 (≈ 1.99 µM) |  |
| O=C(NCc1ccc2c(c1)CCN(Cc1cccc(F)c1)C2)c1cc([N+](=O)[O-])cc([N+](=O)[O-])c1 | 0.056 (≈ 0.121 µM) |  |
| O=C(NCc1ccc2c(c1)CN(Cc1ccc(C(F)(F)F)cc1)C2)c1cc([N+](=O)[O-])cc([N+](=O)[O-])c1 | < 0.016 |  |
| NNC(=O)c1ccncc1 [ISONIAZID] | 0.039 (≈ 0.284 µM) |  |
| O=C(NCc1ccc2c(c1)CN(C(=O)c1ccc(OC(F)(F)F)cc1)C2)c1cc([N+](=O)[O-])cc([N+](=O)[O-])c1 | 0.309 (≈ 0.583 µM) |  |
| CC(=O)CCN1CCc2cc(CNC(=O)c3cc([N+](=O)[O-])cc([N+](=O)[O-])c3)ccc2C1 | 22.7 (≈ 53.3 µM) |  |
| COc1ccc(CN2Cc3ccc(CNC(=O)c4cc([N+](=O)[O-])cc([N+](=O)[O-])c4)cc3C2)cc1 | 0.03 (≈ 0.0649 µM) |  |
| O=C(NCc1ccc2c(c1)CCN(C(=O)c1ccc(F)cc1)C2)c1cc([N+](=O)[O-])cc([N+](=O)[O-])c1 | 0.424 (≈ 0.886 µM) |  |
| CC(C)(C)OC(=O)CN1CCc2cc(CNC(=O)c3cc([N+](=O)[O-])cc([N+](=O)[O-])c3)ccc2C1 | 3.81 (≈ 8.1 µM) |  |
| O=C(NCc1ccc2c(c1)CN(C(=O)c1ccccc1)C2)c1cc([N+](=O)[O-])cc([N+](=O)[O-])c1 | 1.45 (≈ 3.25 µM) |  |
| CC(C)CC(=O)N1CCc2cc(CNC(=O)c3cc([N+](=O)[O-])cc([N+](=O)[O-])c3)ccc2C1 | 0.204 (≈ 0.463 µM) |  |
| O=C(NCc1ccc2c(c1)CN(c1ccc(F)cc1)C2)c1cc([N+](=O)[O-])cc([N+](=O)[O-])c1 | 0.026 (≈ 0.0596 µM) |  |
| COc1ccc(C(=O)N2Cc3ccc(CNC(=O)c4cc([N+](=O)[O-])cc([N+](=O)[O-])c4)cc3C2)cc1 | > 32 |  |
| O=C(NCc1ccc2c(c1)CCN(Cc1ccc(Br)cc1)C2)c1cc([N+](=O)[O-])cc([N+](=O)[O-])c1 | 0.108 (≈ 0.206 µM) |  |
| CN1CCc2cc(CNC(=O)c3cc([N+](=O)[O-])cc([N+](=O)[O-])c3)ccc2C1 | 11.4 (≈ 30.9 µM) |  |
| O=C(NCc1ccc2c(c1)CCN(C(=O)CC1CCCCC1)C2)c1cc([N+](=O)[O-])cc([N+](=O)[O-])c1 | 0.978 (≈ 2.04 µM) |  |
